Measurements from doi:10.1101/2024.05.17.594634, “Protein Structure Inspired Drug Discovery” (bioRxiv, 2024).

How the values were obtained:
human CD34+ stem cells = assay: Bone marrow stem cell (hematopoietic) colony formation assay; format: cell-based
Description: In parallel with measuring growth inhibition of cancer cell growth, we measured effect on human hematopoietic stem cells. Hematopoietic stem cells reside in the bone marrow and are the source of mature cells present in blood.[66] Bone marrow is one of the most sensitive organs in the body to drug toxicity, especially so for anticancer drugs where it can approach 100%.[67–69] Bone marrow toxicity was measured by performing hematopoietic colony formation assays on human CD34+ stem cells. The stem cell nature of this assay permitted assessment of trilineage colony formation: granulocytic (white blood cells), erythrocytic (red blood cells) and megakaryocytic (platelets), measured by the formation of CFU-GM (colony-forming-granulocyte-macrophage), BFU-E (erythroid burst-forming unites) and CFU-GEMM (colony-forming unit-granulocyte, erythrocyte, monocyte, megakaryocyte) colonies, respectively. Two measurements were taken. Total colonies at eight days were measured, thereby matching the eight-day time frame of cancer cell colony formation assays. At fourteen days, individual colonies have differentiated, permitting quantification of each lineage. Human hematopoietic stem cell trilineage colony formation assays were performed as previously described by us.[65] Briefly, human cord blood CD34+ cells (catalog #: 70008.5) were purchased from StemCell Technology Inc., and seeded at 1 × 10^4 cells per 35 mm dish. Cells were cultured in MethoCult™ Express (StemCell Technologies, Inc.) semisolid media, per manufacturer’s instructions, in the presence of compound or vehicle control. At eight days colonies, i.e., groups of ≥ 10 cells, were counted. At fourteen days, individual colonies of BFU-E, CFU-GM and CFU-GEMM were identified based on manufacturers’ morphologic characterization criteria. Assays were run in replicates of N = 2; some were run in replicates of N = 3, as denoted.

HT116 colon cancer cells = assay: Eight-day colony formation assay, HT116; format: cell-based, human
Description: (§1) We sought to identify compounds that would inhibit the growth of cancer cells, but that also did so selectively. Inhibition of cancer cell growth is a highly sought after attribute of anticancer agents. This was assessed by measuring the ability of a compound to inhibit cell growth in eight-day colony formation assays, examining concentrations ranging from 0.017 to 40 μM. Breast, colon, lung and prostate cancer are four of the most common causes of cancer in the United States, are major causes of cancer cell death, and were examined.[64] Two cell lines for each cancer type were assessed: A549 (adenocarcinoma) and H226 (squamous carcinoma) for lung, MCF-7 (estrogen receptor [ER] positive) and MDA-MB-231 (ER negative) for breast, LNCaP (androgen receptor [AR] positive) and PC3-M (AR negative) for prostate, and HCT116 (wild type p53, mutated KRAS) and HT29 (p53 mutant) for colon.[65]
(§2) In considering effect on cancer cells, for each compound and each cell line tested we calculated the efficacy ratio, i.e., efficacy ratio = (percent of remaining cancer cell colonies)/(percent of remaining bone marrow colonies), at 8 days after treatment with 40 μM compound (S4 Fig). We considered those with an efficacy ratio below 0.5 as active and at least partially selective. The stringency of this is highlighted by considering the effect of 5FU on colon cancer, where it is frequently used clinically in proven curative settings, as well as proven life prolonging settings.[70, 71] […] Even at 5.7 μM, where 5FU is toxic to bone marrow, with hematopoietic colony formation at 38% of control, the efficacy ratio for HT29 cells has only dropped to 0.52. […] It can be seen that compounds segregate to protein sites. Specifically, of 10 compounds meeting this activity criteria (i.e., efficacy ratio <0.5), 3 were directed at the Dxr2 site, 3 at FolC2, 2 at FolC1, 1 at Dxr1 and 1 at TYLT.
(§3) Eight-day colony formation assays of cancer cells were performed as described by us.[87] Briefly, 0.5–1.0 × 10^3 cells were seeded into a 12 well plate, after 24 hours compound added and eight days later colonies (of 3 or more cells) were scored after trypan blue staining. Conditions were in replicates of N = 2. All compounds were stored under desiccated conditions in a sealed container at minus 20°C upon arrival. One day prior to use, they were placed into DMSO, stored at […] as stock solutions, thawed just prior to use, and not reused.

[1] = test system: human melanoma SK-MEL-5 cells; assay: Eight-day colony formation assay, SK-MEL-5; format: cell-based
Description: We next evaluated the effect of Dxr2-017 on human melanoma M14 and SK-MEL-5 cell lines in eight-day assays (Fig 8A).
Fig 8. Dxr2-017 inhibits melanoma cell growth through induction of anoikis. (A) Inhibition of melanoma cell growth. Cells were treated with different concentrations of Dxr2-017 and formation of colonies at eight days depicted. Data are expressed as percent of untreated control and are the mean ± SEM (N=3 replicates) of a single experiment. (B) No effect on cycle progression. M14 and SK-MEL-5 cells were treated for 8 days with 20 and 50 nM Dxr2-017, respectively, and phase of cell cycle determined by flow cytometry. Data are the mean ± SEM (N=3). *denotes P-value ≤0.05. (C) Transition to floating cells. Cells were treated for three days with different Dxr2-017 concentrations. Depicted are representative light photomicrographs at 20X; scale bar is150 μm. Blue and green arrows denote adherent and floating cells, respectively. (D) Cleaved caspase 3 is induced in floating cells. […]
Eight-day colony formation assays of cancer cells were performed as described by us.[87] Briefly, 0.5–1.0 × 10^3 cells were seeded into a 12 well plate, after 24 hours compound added and eight days later colonies (of 3 or more cells) were scored after trypan blue staining. […]

[2] = test system: human breast, prostate, colon and lung cancer cells; assay: Eight-day colony formation assays, summary across the cancer cell line panel; format: cell-based
Description: as §1, §2, §3

melanoma cell lines = assay: NCI-60 cell line screen, melanoma cell lines; format: cell-based, human; details: 10 μM X 48 hours
Description: (§4) Above findings support the importance of Dxr2 and FolC2 sites, and of Dxr2-017 and FolC2-001 compounds, respectively. The predicted poses of Dxr2-017 bound to the Dxr2 site and FolC2-001 bound to the FolC2 site are shown (Fig 7). The NCI-60 cell line screen evaluates compound growth inhibition and cell toxicity in a highly standardized manner across 60 different cell lines. Dxr2-017 and FolC2-001 were evaluated in this assay (S5 Fig). NCI-60 screens evaluate compounds at 10 μM X 48 hours. […] Of high interest, in the NCI-60 screen Dxr2-017 had relatively high activity against melanoma cell lines, inducing cell death in 5 cell lines ranging from 25–65%, and inhibiting growth in 4 cell lines ranging from 76–96%. Its impact on cell death represents the most striking relative difference in response across cell lines.

[3] = test system: HT29, MDA-MB-231 and H226; assay: NCI-60 cell line screen, other cell lines; format: cell-based, human; details: 10 μM X 48 hours
Description: as §4

mean number of colonies, % of control, 14 day (human CD34+ stem cells; 40 μM compound, 14 days, mean N=2): 57 % of control | mean number of colonies, % of control, 8 day (human CD34+ stem cells; 40 μM compound, total colonies at 8 days, mean N=2): 70 % of control | decrease of BFU-E compared to control (human CD34+ stem cells; 40 μM, 14 day): 97.1 ± 4.1% | decrease of CFU-G/M compared to control (human CD34+ stem cells; 40 μM, 14 day): 49.8 ± 0.0% | increase of CFU-GEMM compared to control (human CD34+ stem cells; 40 μM, 14 day): 16.1 ± 12.0% | inhibition of 14-day total colony formation (human CD34+ stem cells; 40 μM, 14 day): 42.6 ± 5.8% | IC50 ([1]; Homo sapiens, 192 h, SK-MEL-5, eight-day assay, mean ± SEM): 51.7 ± 16.4 nM
Compound: c1ccc2sc(-c3ccc(CNc4ccc5nnnn5n4)o3)nc2c1 [Dxr2-017]
efficacy ratio (cancer cell colonies to bone marrow colonies at 8 days) (HT116 colon cancer cells; 5.7 μM): 0.69 | efficacy ratio (cancer cell colonies to bone marrow colonies at 8 days) (HT116 colon cancer cells; 40 μM): 0.08 | fold efficacy versus bone marrow stem cells ([1]; SK-MEL-5 IC50 compared to 40 μM eight-day bone marrow treatment): > 750 fold | relative activity for a given compound, % (% of cells tested where ratio is <0.5) ([2]; 5.7 μM): 75% | mean efficacy ratio for cells where the efficacy ratio is below 0.5 ([2]; 5.7 μM, mean ± SEM): 0.25 ± 0.091 | relative activity for a given compound, % (% of cells tested where ratio is <0.5) ([2]; 40 μM): 100% | mean efficacy ratio for cells/compounds where the efficacy ratio is below 0.5 ([2]; 40 μM, mean ± SEM): 0.03 ± 0.01 | cell death (melanoma cell lines; range over 5 melanoma cell lines): 25–65% | inhibition at 10 µM (melanoma cell lines; Homo sapiens, range over 4 melanoma cell lines, read-out: growth inhibition): 76 to 96% | activity in NCI-60 screen [3]: activity against HT29, MDA-MB-231 and H226
